This note sets out measurements from PubChem BioAssay AID1259411 (Chemical Carcinogenesis Research Information System (CCRIS), 2018).

The test system of this data set is rodent carcinogenicity bioassays, tumor incidence. Briefly: CCRIS carcinogenicity studies. Particulars: Species: MOUSE. The gist of the method:
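Archive of carcinogenicity, mutagenicity, tumor promotion and tumor inhibition results drawn from journals, NCI reports and other sources, expert-reviewed; covers 1985-2011 and is no longer updated.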

Activity calls are given as the source filed them. No rule for the calls is given here.

Turning to `c1ccc2c(c1)cc1ccc3cccc4ccc2c1c34`, the carcinogen call was “active; positive” (Strain/Sex: NIGP(S)/FEMALE, Route: SUBCUTANEOUS, Dose: 0, 0.5, 1 MG IN 1% AQUEOUS GELATIN INJECTED IN THE SCAPULAR REGION OF NEWBORN MICE ONCE (STUDY DURATION: 9 WK), Dose: 0, 0.5, 1 MG IN 1% AQUEOUS GELATIN INJECTED IN THE SCAPULAR REGION OF NEWBORN MICE ONCE (STUDY DURATION: 9 WK), Tumor Site: Type of Lesion: LUNG: ADENOMA); “active; positive” (Strain/Sex: NIGP(S)/FEMALE, Route: SUBCUTANEOUS, Dose: 0, 40, 62.5, 125, 250, 500, 1000 UG INJECTED IN THE SCAPULAR REGION OF NEWBORN MICE ONCE (STUDY DURATION: 9 WK), Dose: 0, 40, 62.5, 125, 250, 500, 1000 UG INJECTED IN THE SCAPULAR REGION OF NEWBORN MICE ONCE (STUDY DURATION: 9 WK), Tumor Site: Type of Lesion: LUNG: ADENOMA); “active; positive” (Strain/Sex: NIGP(S)/MALE, Route: SUBCUTANEOUS, Dose: 0, 0.5, 1 MG IN 1% AQUEOUS GELATIN INJECTED IN THE SCAPULAR REGION OF NEWBORN MICE ONCE (STUDY DURATION: 9 WK), Dose: 0, 0.5, 1 MG IN 1% AQUEOUS GELATIN INJECTED IN THE SCAPULAR REGION OF NEWBORN MICE ONCE (STUDY DURATION: 9 WK), Tumor Site: Type of Lesion: LUNG: ADENOMA); “active; positive” (Strain/Sex: NIGP(S)/MALE, Route: SUBCUTANEOUS, Dose: 0, 40, 62.5, 125, 250, 500, 1000 UG INJECTED IN THE SCAPULAR REGION OF NEWBORN MICE ONCE (STUDY DURATION: 9 WK), Dose: 0, 40, 62.5, 125, 250, 500, 1000 UG INJECTED IN THE SCAPULAR REGION OF NEWBORN MICE ONCE (STUDY DURATION: 9 WK), Tumor Site: Type of Lesion: LUNG: ADENOMA); “active; positive” (Strain/Sex: SENCAR/FEMALE, Route: DERMAL, Dose: 0, 12.6, 25.2, 50.2, 101, 202 UG/WK FOR 50-52 WK (STUDY DURATION: 1 YR), Dose: 0, 12.6, 25.2, 50.2, 101, 202 UG/WK FOR 50-52 WK (STUDY DURATION: 1 YR), Tumor Site: Type of Lesion: SKIN: CARCINOMA); “active; positive” (Strain/Sex: SENCAR/MALE, Route: DERMAL, Dose: 0, 12.6, 25.2, 50.5, 101, 202 UG/WK FOR 50-52 WK (STUDY DURATION: 1 YR), Dose: 0, 12.6, 25.2, 50.5, 101, 202 UG/WK FOR 50-52 WK (STUDY DURATION: 1 YR), Tumor Site: Type of Lesion: SKIN: CARCINOMA). Further, the carcinogen call (Strain/Sex: STRAIN-A/FEMALE, Route: GAVAGE, Dose: 0, 1, 2, 3 UMOL IN 0.1 ML COTTONSEED OIL 1/WK FOR 8 WK (STUDY DURATION: 26 WK), Dose: 0, 1, 2, 3 UMOL IN 0.1 ML COTTONSEED OIL 1/WK FOR 8 WK (STUDY DURATION: 26 WK), Tumor Site: Type of Lesion: LUNG: ADENOMA, FORESTOMACH: TUMOR) is “active; positive”; the carcinogen call (Strain/Sex: STRAIN-A/FEMALE, Route: INTRAPERITONEAL, Dose: 0, 1, 2, 3 UMOL IN 0.1 ML COTTONSEED OIL 1/WK FOR 8 WK (STUDY DURATION: 26 WK), Dose: 0, 1, 2, 3 UMOL IN 0.1 ML COTTONSEED OIL 1/WK FOR 8 WK (STUDY DURATION: 26 WK), Tumor Site: Type of Lesion: LUNG: ADENOMA, FORESTOMACH: TUMOR) is “active; positive”; the carcinogen call (Strain/Sex: STRAIN-A/FEMALE, Route: INTRATRACHEAL, Dose: 0, 0.5, 1 MG ON CHARCOAL POWDER INSTILLED 8 TIMES (STUDY DURATION: 13 WK), Dose: 0, 0.5, 1 MG ON CHARCOAL POWDER INSTILLED 8 TIMES (STUDY DURATION: 13 WK), Tumor Site: Type of Lesion: LUNG: SQUAMOUS CELL CARCINOMA OR ADENOCARCINOMA) is “active; positive”; the carcinogen call (Strain/Sex: STRAIN-A/FEMALE, Route: ORAL, Dose: 0, 16, 98 PPM IN DIET FOR 260 D (STUDY DURATION: 260 D), Dose: 0, 16, 98 PPM IN DIET FOR 260 D (STUDY DURATION: 260 D), Tumor Site: Type of Lesion: LUNG: TUMOR, FORESTOMACH: TUMOR) was “active; positive”; the carcinogen call (Strain/Sex: STRAIN-A/FEMALE, Route: SUBCUTANEOUS, Dose: 0, 0.5, 1 MG IN 1% AQUEOUS GELATIN INJECTED IN THE SCAPULAR REGION OF NEWBORN MICE ONCE (STUDY DURATION: 9 WK), Dose: 0, 0.5, 1 MG IN 1% AQUEOUS GELATIN INJECTED IN THE SCAPULAR REGION OF NEWBORN MICE ONCE (STUDY DURATION: 9 WK), Tumor Site: Type of Lesion: LUNG: ADENOMA) is “active; positive”; the carcinogen call (Strain/Sex: STRAIN-A/FEMALE, Route: SUBCUTANEOUS, Dose: 0, 40, 62.5, 125, 250, 500, 1000 UG FOR 9 WK (STUDY DURATION: 9 WK), Dose: 0, 40, 62.5, 125, 250, 500, 1000 UG FOR 9 WK (STUDY DURATION: 9 WK), Tumor Site: Type of Lesion: LUNG: ADENOMA) was “active; positive”. The carcinogen call is “active; positive” (Strain/Sex: STRAIN-A/FEMALE, Route: SUBCUTANEOUS, Dose: 0, 40, 62.5, 125, 250, 500, 1000 UG INJECTED IN THE SCAPULAR REGION OF NEWBORN MICE ONCE (STUDY DURATION: 9 WK), Dose: 0, 40, 62.5, 125, 250, 500, 1000 UG INJECTED IN THE SCAPULAR REGION OF NEWBORN MICE ONCE (STUDY DURATION: 9 WK), Tumor Site: Type of Lesion: LUNG: ADENOMA); “active; positive” (Strain/Sex: STRAIN-A/MALE, FEMALE, Route: INTRAPERITONEAL, Dose: 2 MG, 1/WK, Tumor Site: Type of Lesion: PERITONEAL CAVITY: FIBROSARCOMA); “active; positive” (Strain/Sex: STRAIN-A/MALE,FEMALE, Route: INTRAPERITONEAL, Tumor Site: Type of Lesion: PERITONEAL CAVITY: FIBROSARCOMA); “active; positive” (Strain/Sex: STRAIN-A/MALE, Route: INTRAPERITONEAL, Dose: 0-200 MG/KG IN TRICAPRYLIN ONCE (STUDY DURATION: 8 MO), Tumor Site: Type of Lesion: LUNG: ADENOMA); “active; positive” (Strain/Sex: STRAIN-A/MALE, Route: INTRAPERITONEAL, Dose: 0, 5, 10, 50, 100, 200 MG/KG BW ONCE (STUDY DURATION: 8 MO), Dose: 0, 5, 10, 50, 100, 200 MG/KG BW ONCE (STUDY DURATION: 8 MO), Tumor Site: Type of Lesion: LUNG: ADENOMA); “active; positive” (Strain/Sex: STRAIN-A/MALE, Route: SUBCUTANEOUS, Dose: 0, 0.5, 1 MG IN 1% AQUEOUS GELATIN INJECTED IN THE SCAPULAR REGION OF NEWBORN MICE ONCE (STUDY DURATION: 9 WK), Dose: 0, 0.5, 1 MG IN 1% AQUEOUS GELATIN INJECTED IN THE SCAPULAR REGION OF NEWBORN MICE ONCE (STUDY DURATION: 9 WK), Tumor Site: Type of Lesion: LUNG: ADENOMA). Further, the carcinogen call runs as follows: (Strain/Sex: STRAIN-A/MALE, Route: SUBCUTANEOUS, Dose: 0, 40, 62.5, 125, 250, 500, 1000 UG FOR 9 WK (STUDY DURATION: 9 WK), Dose: 0, 40, 62.5, 125, 250, 500, 1000 UG FOR 9 WK (STUDY DURATION: 9 WK), Tumor Site: Type of Lesion: LUNG: ADENOMA) “active; positive”; (Strain/Sex: STRAIN-A/MALE, Route: SUBCUTANEOUS, Dose: 0, 40, 62.5, 125, 250, 500, 1000 UG INJECTED IN THE SCAPULAR REGION OF NEWBORN MICE ONCE (STUDY DURATION: 9 WK), Dose: 0, 40, 62.5, 125, 250, 500, 1000 UG INJECTED IN THE SCAPULAR REGION OF NEWBORN MICE ONCE (STUDY DURATION: 9 WK), Tumor Site: Type of Lesion: LUNG: ADENOMA) “active; positive”; (Strain/Sex: SWISS/FEMALE, Route: DERMAL, Dose: 0, 1, 4, 8 NMOL IN 100 µL ACETONE 2/WK FOR 40 WK (STUDY DURATION: 48 WK), Dose: 0, 1, 4, 8 NMOL IN 100 µL ACETONE 2/WK FOR 40 WK (STUDY DURATION: 48 WK)) “inactive; negative”.
